pKi: −log10 of the molar value. Like-named read-outs stand apart in the source and are kept apart here.
Tests used:
[1] = tested on: maximal electroshock; assay: Maximal electroshock (MES), anticonvulsive action, mouse i.p.; type: in vivo
Description: (§1) ^3) Mouse i.p.: MES = maximal electroshock, PTZ = s.c. pentetrazole
(§2) ^5) In % of the protected animals; n.t. = not tested

[2] = tested on: s.c. pentetrazole; assay: s.c. pentetrazole (PTZ), anticonvulsive action, mouse i.p.; type: in vivo; conditions: ip, read-out: Action, PTZ (protected animals)
Description: as §1, §2

[3] = biological target: T1, adenosine receptor (A3) (Homo sapiens, UniProt P0DMS8); assay: Binding at the adenosine receptor (A3) and selectivities; conditions: for pKi: adenosine A3 receptor; for selectivity A3/A1: ratio A3/A1; for selectivity A3/A2: ratio A3/A2
T1 sequence (P0DMS8 1-318): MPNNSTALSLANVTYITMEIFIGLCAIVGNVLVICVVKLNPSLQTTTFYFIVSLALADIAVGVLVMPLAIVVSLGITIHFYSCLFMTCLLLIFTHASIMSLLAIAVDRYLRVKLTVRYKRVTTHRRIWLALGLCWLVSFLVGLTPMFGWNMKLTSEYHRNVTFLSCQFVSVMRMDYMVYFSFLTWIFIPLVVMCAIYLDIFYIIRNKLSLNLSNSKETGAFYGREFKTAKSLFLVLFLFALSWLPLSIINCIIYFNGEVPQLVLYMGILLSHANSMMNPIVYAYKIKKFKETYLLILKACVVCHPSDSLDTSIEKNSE

[4] = Octanol/water partition coefficient
[5] = tested on: maximal electroshock; assay: Maximal electroshock, anticonvulsive action, rat p.o.; type: in vivo; conditions: for ED50: po, maximal electroshock
Description: Week-blad, Sc. Ed. 14, 132 (1992) and Antiepileptic Drugs, Third Ed., Raven Press, New York 1989.
(§3) Analogous results were obtained for the orally administered tests.

[6] = in vivo; conditions: rat, po
Description: as §3

[7] = tested on: eosinophilic granulocytes; assay: Inhibition of infiltration of eosinophilic granulocytes into the lungs (BAL, ovalbumin-challenged guinea-pigs, oral); type: in vivo, guinea-pig (Dunkin Hartley Shoe); conditions: guinea-pig, 100 mg/kg, 2 hours before allergen challenge
Description: The compounds of the present invention were tested in vivo for antiasthmatic action after oral administration to male guinea-pigs, and the inhibition of the infiltration of the eosinophilic granulocytes into the lungs was determined. Male guinea-pigs (Dunkin Hartley Shoe) weighing 200-250 g were actively sensitized by an s.c. injection of ovalbumin (10 μg+1 mg of aluminum hydroxide) and boosted 2 weeks later. One week after boosting with ovalbumin, the animals were challenged with an aerosol of 0.5% strength ovalbumin solution for 20-30 sec. 24 hours later, a bronchoalveolar lavage (BAL) was carried out in the animals under urethane anaesthesia using 2×5 ml of saline solution. The lavage fluid was collected and centrifuged at 400×g for 10 min and the cell pellets were suspended in 1 ml of saline solution. The eosinophilic granulocytes were counted microscopically in a Neubauer chamber. A Becton Dickinson test kit (No. 5877) for eosinophils was used for staining. The test kit used phloxine B as a selective stain for eosinophils. The eosinophils in the BAL were counted for each animal and the eosinophils were calculated in millions/animal. The test substances were administered orally 2 hours before allergen challenge.
The percentage inhibition of eosinophilia of the group treated with substance is calculated according to the following formula:
(A-C)-(B-C)/(A-C)×100=% inhibition […]

[8] = ip, mouse i.p., 100 mg/kg, read-out: Action, MES (protected animals)
[9] = ip, mouse i.p., read-out: Action, MES (protected animals)

Compound	responders at 100 mg/kg [1, 8] [%]	responders at 100 mg/kg ([2]; mouse i.p., 100 mg/kg) [%]	responders at 30 mg/kg [1, 9] [%]	pKi [3]	selectivity A3/A1 [3]	selectivity A3/A2 [3]	logP [4]	other results
2-benzyl-pyrazolo-[3,4-d]-pyrimidine [reference compound]	–	–	–	–	–	–	–	Action, MES (protected animals) ([1]; mouse i.p., 100 mg/kg): 100%; Log P (octanol/water partition coefficient): 0.40
NC(=O)N1c2ccccc2C=Cc2ccccc21 [Carbamazepine, reference compound]	100	0	–	–	–	–	–	–
O=c1[nH]cnc2nn(Cc3ccccc3F)cc12 [Example 1, 2-(2-fluorobenzyl)pyrazolo[3,4-d]pyrimidin-4(5H)-one]	–	100	100	5.49	0.7	0.01	0.2	–
O=c1[nH]cnc2nn(Cc3ccccc3Cl)cc12 [Example 2, 2-(2-chlorobenzyl)pyrazolo[3,4-d]pyrimidin-4(5H)-one]	100	60	–	5.70	0.02	0.06	1.01	ED50 [5]: 32 mg/kg; TD50 [6]: > 250 mg/kg
O=c1[nH]cnc2nn(Cc3ccccc3Br)cc12 [Example 3, 2-(2-bromobenzyl)pyrazolo[3,4-d]pyrimidin-4(5H)-one]	100	–	–	6.37	0.008	0.005	0.56	% inhibition of infiltration of eosinophilic granulocytes into the lung [7]: 74%; responders at 300 mg/kg ([2]; mouse i.p.): 80%
O=c1[nH]cnc2nn(Cc3ccccc3I)cc12 [Example 4, 2-(2-iodobenzyl)pyrazolo[3,4-d]pyrimidin-4(5H)-one]	–	–	–	6.31	0.008	< 0.0005	0.74	responders at 300 mg/kg ([1]; ip, mouse i.p., 300 mg/kg, read-out: Action, MES (protected animals)): 100%
O=c1[nH]cnc2nn(Cc3ccccc3C(F)(F)F)cc12 [Example 5, 2-(2-trifluoromethylbenzyl)pyrazolo[3,4-d]pyrimidin-4(5H)-one]	–	–	100	6.10	0.002	0.007	1.08	responders at 30 mg/kg ([2]; mouse i.p.): 20%
Cc1ccccc1Cn1cc2c(=O)[nH]cnc2n1 [Example 6, 2-(2-methylbenzyl)pyrazolo[3,4-d]pyrimidin-4(5H)-one]	–	20	100	5.40	0.01	0.08	0.75	–
O=c1[nH]cnc2nn(Cc3cccc(C(F)(F)F)c3)cc12 [Example 7, 2-(3-trifluoromethylbenzyl)pyrazolo[3,4-d]pyrimidin-4(5H)-one]	–	60	100	–	–	–	1	–
O=c1[nH]cnc2nn(Cc3c(F)cccc3F)cc12 [Example 8, 2-(2,6-difluorobenzyl)pyrazolo[3,4-d]pyrimidin-4(5H)-one]	–	–	100	–	–	–	0.18	responders at 30 mg/kg ([2]; mouse i.p.): 40%
O=c1[nH]cnc2nn(Cc3c(F)cccc3Cl)cc12 [Example 9, 2-(2-chloro-6-fluorobenzyl)pyrazolo[3,4-d]pyrimidin-4(5H)-one]	–	–	100	6.00	0.002	0.004	0.93	–
O=c1[nH]cnc2nn(Cc3c(Cl)cccc3Cl)cc12 [Example 10, 2-(2,6-dichlorobenzyl)pyrazolo[3,4-d]pyrimidin-4(5H)-one]	60	–	–	5.80	0.02	0.02	1.16	–
O=c1[nH]cnc2nn(Cc3ccc(Cl)cc3Cl)cc12 [Example 11, 2-(2,4-dichlorobenzyl)pyrazolo[3,4-d]pyrimidin-4(5H)-one]	100	20	–	6.15	0.04	0.01	1.68	–
COc1ccc(Cn2cc3c(=O)[nH]cnc3n2)cc1 [Example 12, 2-(4-methoxybenzyl)pyrazolo[3,4-d]pyrimidin-4(5H)-one]	15	–	–	5.01	0.5	0.01	0.62	responders at 300 mg/kg ([2]; mouse i.p.): 40%
O=c1[nH]cnc2nn(Cc3cc4c(cc3Cl)OCO4)cc12 [Example 13, 2-(2-chloro-4,5-methylenedioxybenzyl)pyrazolo[3,4-d]pyrimidin-4(5H)-one]	30	–	–	5.08	0.4	0.02	1.21	–
S=c1[nH]cnc2nn(Cc3ccccc3Cl)cc12 [Example 15, 2-(2-chlorobenzyl)pyrazolo[3,4-d]pyrimidine-4(5H)-thione]	100	60	–	6.30	0.007	< 0.001	1.54	ED50 [5]: 12 mg/kg; anticonvulsive action, in words ([5]; qualitative): strongly anticonvulsive; TD50 [6]: > 460 mg/kg; therapeutic breadth, in words [6]: great therapeutic breadth
S=c1[nH]cnc2nn(Cc3ccccc3Br)cc12 [Example 16, 2-(2-bromobenzyl)pyrazolo[3,4-d]pyrimidine-4(5H)-thione]	30	–	–	6.47	0.005	< 0.001	1.2	–
S=c1[nH]cnc2nn(Cc3ccccc3I)cc12 [Example 17, 2-(2-iodobenzyl)pyrazolo[3,4-d]pyrimidine-4(5H)-thione]	30	–	–	6.30	0.008	< 0.001	1.4	–
FC(F)(F)c1ccccc1Cn1cc2c(=S)[nH]cnc2n1 [Example 18, 2-(2-trifluoromethylbenzyl)pyrazolo[3,4-d]pyrimidine-4(5H)-thione]	100	80	–	–	–	–	1.6	–
Fc1cccc(F)c1Cn1cc2c(=S)[nH]cnc2n1 [Example 19, 2-(2,6-difluorobenzyl)pyrazolo[3,4-d]pyrimidine-4(5H)-thione]	–	60	100	–	–	–	1.57	–
CCCC(CCC)C(=O)O [Valproate, reference compound]	–	–	–	–	–	–	–	responders at 100 mg/kg ([1]; Mus musculus, ip, read-out: Action, MES (protected animals)): 0%; responders at 100 mg/kg ([2]; Mus musculus): 30%
